The source of these data is US10556860B2, “hTERT modulators and methods of use” (Arizona Board of Regents on Behalf of the University of …, priority 2015, dated 2020).

In one assay the test system is BCL2 mRNA. Kind of assay: qPCR of BCL2 mRNA in MCF7 cells. The settings on record: 72 h. The class given is cell-based, human. As to the method: (§1) qPCR. MCF7 and melanoma cells were treated with GTC365 and BRACO-19 for 72 h. Total RNA was extracted using an RNeasy mini-prep kit (Qiagen) and quantitated by measuring absorbance at 260 nm. cDNA was synthesized using a Takara PrimeScript™ RT Reagent Kit with gDNA eraser and then used as a template for qPCR. The qPCR was performed using Kapa Probe Fast qPCR Master Mix with ABI Taqman probes of hTERT (Hs00972656_m1), BCL2 (HS00608023_m1, FAM-labeled) or MYC (Hs00153408_m1), and GAPDH (Hs02758991_g1, VIC-labeled). The Ct values were measured by running Rotor-Gene Q, and the relative quantity of hTERT, BCL2, and MYC mRNA was obtained compared to GAPDH as an internal control.
(§2) BCL2 is a downstream molecule to hTERT such that BCL2 expression is activated by hTERT to repress apoptosis. To further define the effect of GTC365 on the transcription of hTERT, the relative mRNA levels of MYC and BCL2 were determined by quantitative PCR analysis in MCF7 cells after treatment with GTC365 for 72 h. […] A series of GTC260 analogs were synthesized and their effect on hTERT gene expression in MCF7A and U87 cells determined (FIG. 7). […] Therefore, GTC365 directly repressed the transcription of hTERT and then led to a downstream decrease of BCL2 expression.
For orientation: Quantitative PCR measures a nucleic acid by following its amplification.

The next assay has as its system MYC mRNA. Kind of assay: qPCR of MYC mRNA in MCF7 cells. To be noted: 72 h. The class given is cell-based, human. The procedure:
as §1, §2

Consider `Cc1cc(NC(=O)NC(=O)c2ccccc2NC(=O)C(C)N)ccc1Oc1ncc(Br)cn1` (centres unmarked) [GTC260], for which, in the assay with BCL2 mRNA, the “effect on BCL2 mRNA level” value is “direct repression of hTERT transcription and the downstream molecule BCL2”. Further, the “effect on MYC mRNA level” value with MYC mRNA is given as “no effect”.
